Experimental data taken from patent publication US9133158B2, “Bicyclic dihydroisoquinoline-1-one derivatives” (Hoffmann-La Roche Inc., priority 2011, dated 2015).

What was measured:
[1] = target: T1, human CYP11B2 (Homo sapiens, UniProt P19099); experiment: G-402 cellular enzyme assay, human CYP11B2 (aldosterone release, HTRF); assay type: cell-based; details: G-402 cells, 1 μM Deoxycorticosterone
T1 construct: expressed in transfected cells
T1 sequence (P19099 25-503): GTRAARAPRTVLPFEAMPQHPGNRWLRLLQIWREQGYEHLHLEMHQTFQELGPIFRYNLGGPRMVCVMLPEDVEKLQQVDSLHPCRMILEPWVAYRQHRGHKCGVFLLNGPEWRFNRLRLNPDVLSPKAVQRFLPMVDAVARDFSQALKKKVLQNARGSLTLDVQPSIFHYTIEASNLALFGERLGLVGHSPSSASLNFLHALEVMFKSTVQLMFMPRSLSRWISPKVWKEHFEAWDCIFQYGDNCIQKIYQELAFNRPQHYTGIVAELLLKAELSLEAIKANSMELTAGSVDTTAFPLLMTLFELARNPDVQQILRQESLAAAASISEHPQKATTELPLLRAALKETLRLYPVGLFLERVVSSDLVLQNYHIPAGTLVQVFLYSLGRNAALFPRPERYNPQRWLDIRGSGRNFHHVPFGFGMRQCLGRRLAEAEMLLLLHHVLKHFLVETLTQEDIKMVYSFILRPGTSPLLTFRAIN
Procedure, shortened: (§1)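 G-402 cells stably expressing human CYP11B1 or CYP11B2 incubated 16 h in DMEM/F12 with 2.5% charcoal-treated FCS, compound, and 1 μM 11-deoxycortisol (B1) or 1 μM deoxycorticosterone (B2). Cortisol (B1) or aldosterone (B2) in supernatant measured by HTRF; EC50 from 4-parameter MMF fit.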

[2] = target: T2, human CYP11B1 (Homo sapiens, UniProt P15538); experiment: G-402 cellular enzyme assay, human CYP11B1 (cortisol release, HTRF); assay type: cell-based; details: G-402 cells, 1 μM Deoxycortisol
T2 construct: expressed in transfected cells
T2 sequence (P15538 25-503): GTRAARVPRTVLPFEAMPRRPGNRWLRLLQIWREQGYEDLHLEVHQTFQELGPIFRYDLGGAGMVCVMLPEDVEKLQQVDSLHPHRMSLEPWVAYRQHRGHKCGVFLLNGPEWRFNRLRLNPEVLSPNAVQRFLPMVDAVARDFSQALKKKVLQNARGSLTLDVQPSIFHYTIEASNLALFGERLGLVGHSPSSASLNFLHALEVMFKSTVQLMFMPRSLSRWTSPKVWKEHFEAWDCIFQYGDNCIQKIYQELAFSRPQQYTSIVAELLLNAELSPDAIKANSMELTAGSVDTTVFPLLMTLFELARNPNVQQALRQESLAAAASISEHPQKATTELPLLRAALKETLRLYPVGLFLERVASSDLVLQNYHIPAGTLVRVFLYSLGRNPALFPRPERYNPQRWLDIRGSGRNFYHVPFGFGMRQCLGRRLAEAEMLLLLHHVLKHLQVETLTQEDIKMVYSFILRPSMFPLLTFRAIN
Procedure, shortened: as §1

SMILES	EC50 [1] [nM]	EC50 [2] [nM]
O=C(Nc1cncc(N2CCc3cc(Cl)ccc3C2=O)c1)NC1CCCCC1 [Example 250, 1-[5-(6-Chloro-1-oxo-3,4-dihydro-1H-isoquinolin-2-yl)-pyridin-3-yl]-3-cyclohexyl-urea]	4440	12300
CCc1nccn1Cc1cncc(N2CCc3cc(Cl)ccc3C2=O)c1 [Example 191, 6-Chloro-2-[5-(2-ethyl-imidazol-1-ylmethyl)-pyridin-3-yl]-3,4-dihydro-2H-isoquinolin-1-one]	394	8550
O=C1c2ccc(Cl)cc2CCN1c1cncc(Cn2cncn2)c1 [Example 180, 6-Chloro-2-(5-[1,2,4]triazol-1-ylmethyl-pyridin-3-yl)-3,4-dihydro-2H-isoquinolin-1-one]	123	802
CCOc1ccc2c(n1)C(C)(C)N(c1cncc(OC(F)F)c1)C2=O [Example 303, 6-(5-Difluoromethoxy-pyridin-3-yl)-2-ethoxy-7,7-dimethyl-6,7-dihydro-pyrrolo[3,4-b]pyridin-5-one]	93.6	12600
CC(C)(O)c1c(F)cncc1N1CCc2cc(Cl)ccc2C1=O [Example 70, 6-Chloro-2-[5-fluoro-4-(1-hydroxy-1-methyl-ethyl)-pyridin-3-yl]-3,4-dihydro-2H-isoquinolin-1-one]	460	392
CS(=O)(=O)NCc1cncc(N2C(=O)c3ccc(F)cc3C23CC3)c1 [Example 404, N-{[5-(6′-Fluoro-3′-oxospiro [cyclopropane-1,1′-isoindol]-2′(3′H)-yl)pyridin-3-yl]methyl} methane-sulfonamide]	298	5480
CC(=O)NC1CCc2c1cncc2N1CCc2cc(Cl)ccc2C1=O (single isomer, unassigned) [Example 333, N-[(S or R)-4-(6-Chloro-1-oxo-3,4-dihydro-1H-isoquinolin-2-yl)-6,7-dihydro-5H-[2]pyrindin-7-yl]-acetamide]	95.8	5240
O=C1c2ccc(Cl)cc2CCN1c1cccnn1 [Example 52, 6-Chloro-2-pyridazin-3-yl-3,4-dihydro-2H-isoquinolin-1-one]	382	2460
CC1Cc2cc(Cl)ccc2C(=O)N1c1cncc(F)c1 (stereo not drawn) [Example 89, 6-Chloro-2-(5-fluoro-pyridin-3-yl)-3-methyl-3,4-dihydro-2H-isoquinolin-1-one]	272	16800
CCC(=O)NC1CCCc2c1cncc2N1CCc2cc(Cl)ccc2C1=O (single isomer, unassigned) [Example 328, N-((R or S)-6-Chloro-1-oxo-3,4,5′,6′,7′,8′-hexahydro-1H-[2,4′]biisoquinolinyl-8′-yl)-propionamide]	173	18400
O=C1c2ccc(Cl)cc2CN1c1cccnc1 [Example 108, 5-Chloro-2-pyridin-3-yl-2,3-dihydro-isoindol-1-one]	163	9780
O=C(NC1CC1)c1cncc(N2CCc3cc(Cl)ccc3C2=O)c1 [Example 44, 5-(6-Chloro-1-oxo-3,4-dihydro-1H-isoquinolin-2-yl)-N-cyclopropyl-nicotinamide]	5930	16900
Cn1nccc1-c1cncc(N2CCc3cc(Cl)ccc3C2=O)c1 [Example 238, 6-Chloro-2-[5-(2-methyl-2H-pyrazol-3-yl)-pyridin-3-yl]-3,4-dihydro-2H-isoquinolin-1-one]	104	5990
O=C(c1cncc(N2CCc3cc(Cl)ccc3C2=O)c1)N1CCC(F)(F)CC1 [Example 47, 6-Chloro-2-[5-(4,4-difluoro-piperidine-1-carbonyl)-pyridin-3-yl]-3,4-dihydro-2H-isoquinolin-1-one]	1030	23200
CCS(=O)(=O)NCc1cncc(N2C(=O)c3ccc(F)cc3C23CC3)c1 [Example 393, N-{[5-(6′-Fluoro-3′-oxospiro [cyclopropane-1,1′-isoindol]-2′(3′H)-yl)pyridin-3-yl]methyl} ethane-sulfonamide]	265	8430
CCOc1ccc2c(n1)C(C)(C)N(c1cncc(F)c1)C2=O [Example 299, 2-Ethoxy-6-(5-fluoro-pyridin-3-yl)-7,7-dimethyl-6,7-dihydro-pyrrolo[3,4-b]pyridin-5-one]	787	48500

The remaining compounds from weak to strong by EC50 [1], led by results:

EC50 [1] [nM]	EC50 [2] [nM]	SMILES
93.2	5190	O=C1c2ccc(Cl)cc2C(C2CC2)N1c1cncc(OC(F)F)c1 (stereo not drawn) [Example 302, 5-Chloro-3-cyclopropyl-2-(5-difluoromethoxy-pyridin-3-yl)-2,3-dihydro-isoindol-1-one]
66.9	2270	CC1(C)c2cc(Cl)ccc2C(=O)N1c1cncc(C2CCCN(S(C)(=O)=O)C2)n1 (stereo not drawn) [Example 465, 5-Chloro-2-[6-(1-methanesulfonyl-piperidin-3-yl)-pyrazin-2-yl]-3,3-dimethyl-2,3-dihydro-isoindol-1-one]
66.7	633	CCC1c2cc(Cl)ccc2C(=O)N1c1cncc(C(C)O)c1 (stereo not drawn) [Example 283, 5-Chloro-3-ethyl-2-[5-(1-hydroxy-ethyl)-pyridin-3-yl]-2,3-dihydro-isoindol-1-one]
54.5	7990	CCC(=O)NC1CCc2c1cncc2N1Cc2cc(Cl)ccc2C1=O (single isomer, unassigned) [Example 339, N-[(R or S)-4-(5-Chloro-1-oxo-1,3-dihydro-isoindol-2-yl)-6,7-dihydro-5H-[2]pyrindin-7-yl]-propionamide]
54.5	266	CCC1c2cc(Cl)ccc2C(=O)N1c1cncc(OC)c1 (stereo not drawn) [Example 127, 5-Chloro-3-ethyl-2-(5-methoxy-pyridin-3-yl)-2,3-dihydro-isoindol-1-one]
46.8	555	O=C1c2ccc(Cl)cc2CCN1c1cncc(COC2CCCC2)c1 [Example 197, 6-Chloro-2-(5-cyclopentyloxymethyl-pyridin-3-yl)-3,4-dihydro-2H-isoquinolin-1-one]
46.2	425	CC(c1cncc(N2CCc3cc(Cl)ccc3C2=O)c1)n1nccn1 (stereo not drawn) [Example 269, 6-Chloro-2-[5-(1-[1,2,3]triazol-2-yl-ethyl)-pyridin-3-yl]-3,4-dihydro-2H-isoquinolin-1-one]
44.9	807	Cc1cncc(N2CCc3cc(Cl)ccc3C2=O)c1 [Example 8, 6-Chloro-2-(5-methyl-pyridin-3-yl)-3,4-dihydro-2H-isoquinolin-1-one]
22.3	144	O=C1c2ccc(Cl)cc2CCN1c1cncc(CN2CCCC(F)(F)C2)c1 [Example 172, 6-Chloro-2-[5-(3,3-difluoro-piperidin-1-ylmethyl)-pyridin-3-yl]-3,4-dihydro-2H-isoquinolin-1-one]
14.3	1310	CC1(C)c2cc(Cl)ccc2C(=O)N1c1cncc(CNC(=O)c2cccnc2Cl)c1 [Example 433, 2-Chloro-N-[5-(6-chloro-1,1-dimethyl-3-oxo-1,3-dihydro-isoindol-2-yl)-pyridin-3-ylmethyl]-nicotinamide]
14	188	CC(O)(c1cncc(N2CCc3cc(Cl)ccc3C2=O)c1)c1ccc(F)c(F)c1 (stereo not drawn) [Example 36, 6-Chloro-2-{5-[1-(3,4-difluoro-phenyl)-1-hydroxy-ethyl]-pyridin-3-yl}-3,4-dihydro-2H-isoquinolin-1-one]
3.8	202	CC1(C)c2cc(Cl)ccc2C(=O)N1c1cncc(CNC(=O)c2cccnc2)c1 [Example 438, N-[5-(6-Chloro-1,1-dimethyl-3-oxo-1,3-dihydro-isoindol-2-yl)-pyridin-3-ylmethyl]-nicotinamide]
3.7	41.8	O=C1c2ccc(Cl)cc2CCN1c1cncc(CNc2ccc(F)cc2)c1 [Example 258, 6-Chloro-2-{5-[(4-fluoro-phenylamino)-methyl]-pyridin-3-yl}-3,4-dihydro-2H-isoquinolin-1-one]
2.8	18.2	O=C1c2ccc(Cl)cc2CCN1c1cncc(Cc2ccc(N3CCOCC3)nc2)c1 [Example 207, 6-Chloro-2-[5-(6-morpholin-4-yl-pyridin-3-ylmethyl)-pyridin-3-yl]-3,4-dihydro-2H-isoquinolin-1-one]
